{"source": "PubChem BioAssay AID651790", "about": "(The Scripps Research Institute Molecular Screening Center, 2012)", "note": "Calls of active or inactive are those of the source. The rule behind the calls is not given here."}
{"tested_on": "cells with GAA30 frataxin promoter-luciferase, luminescence", "test": "short-repeat frataxin promoter luciferase activation – cell-based, luminescence, GAA30 repeat, counter-screen for GAA850 frataxin promoter activators, dose response (AID 651790)"}
{"smiles": "COc1ccc(-c2nnc(Nc3nc4ccc(SC)cc4s3)o2)c(OC)c1", "EC50": "> 59.6 µM (inactive)"}
{"smiles": "COc1ccc(-c2nnc(Nc3nc4c(OC)cccc4s3)o2)c(OC)c1", "EC50": "> 59.6 µM (inactive)"}
{"smiles": "CSc1ccc2nc(Nc3nnc(-c4ccc5c(c4)OCCO5)o3)sc2c1", "EC50": "> 59.6 µM (inactive)"}
{"smiles": "CSc1ccc2nc(Nc3nnc(-c4ccccc4Cl)o3)sc2c1", "EC50": "27.6 µM (inactive)"}
{"smiles": "COc1cccc2sc(Nc3nnc(-c4ccccc4Cl)o3)nc12", "EC50": "> 59.6 µM (inactive)"}
{"smiles": "COc1ccccc1NC(=O)c1cnc(SCC(=O)NCc2ccc3c(c2)OCO3)n(C)c1=O", "EC50": "> 59.6 µM (inactive)"}
{"smiles": "Fc1ccc2nc(Nc3nnc(-c4ccccc4Cl)o3)sc2c1", "EC50": "> 59.6 µM (inactive)"}
{"smiles": "COc1ccccc1NC(=O)c1cnc(SCC(=O)NCCc2ccccc2)n(C)c1=O", "EC50": "> 59.6 µM (inactive)"}
{"smiles": "Cn1c(SCC(=O)NCC2CCCO2)ncc(C(=O)Nc2ccccc2)c1=O", "note": "(stereo not drawn)", "EC50": "> 59.6 µM (inactive)"}
{"smiles": "COc1ccc(-c2nnc(Nc3nc4cc(OC)ccc4s3)o2)c(OC)c1", "EC50": "> 59.6 µM (inactive)"}
{"smiles": "COc1cccc2sc(Nc3nnc(-c4ccccc4)o3)nc12", "EC50": "> 59.6 µM (inactive)"}
{"smiles": "Fc1cccc2sc(Nc3nnc(-c4ccccc4Cl)o3)nc12", "EC50": "4.95 µM"}
{"smiles": "COc1ccccc1NC(=O)c1cnc(SCC(=O)NCc2ccccc2)n(C)c1=O", "EC50": "> 59.6 µM (inactive)"}
{"smiles": "CCc1nnc(NC(=O)CSc2ncc(C(=O)Nc3ccc(C)c(C)c3)c(=O)n2C)s1", "EC50": "> 59.6 µM (inactive)"}
{"smiles": "COc1ccccc1CNC(=O)CSc1ncc(C(=O)Nc2ccccc2)c(=O)n1C", "EC50": "> 59.6 µM (inactive)"}
{"smiles": "COc1ccccc1NC(=O)c1cnc(SCC(=O)Nc2nc3ccccc3s2)n(C)c1=O", "EC50": "> 59.6 µM (inactive)"}
{"smiles": "Clc1ccc(-c2nnc(Nc3nc4cc5c(cc4s3)OCO5)o2)cc1", "EC50": "> 59.6 µM (inactive)"}
{"smiles": "COc1ccccc1-c1nnc(Nc2nc3c(OC)cccc3s2)o1", "EC50": "> 59.6 µM (inactive)"}
{"smiles": "Cc1ccc(NC(=O)c2cnc(SCC(=O)Nc3cccc(C(F)(F)F)c3)n(C)c2=O)cc1C", "EC50": "28.7 µM (inactive)"}
{"smiles": "COc1ccccc1NC(=O)c1cnc(SCC(=O)Nc2ccc3c(c2)OCO3)n(C)c1=O", "EC50": "> 59.6 µM (inactive)"}
{"smiles": "COc1ccccc1NC(=O)c1cnc(SCC(=O)NCC2CCCO2)n(C)c1=O", "note": "(stereo not drawn)", "EC50": "> 59.6 µM (inactive)"}
{"smiles": "Fc1ccc(-c2nnc(Nc3nc4c(F)cccc4s3)o2)cc1", "EC50": "0.634 µM"}
{"smiles": "Cn1c(SCC(=O)NCC2CCCO2)ncc(C(=O)Nc2ccc(F)cc2)c1=O", "note": "(stereo not drawn)", "EC50": "> 59.6 µM (inactive)"}
{"smiles": "COc1ccccc1NC(=O)c1cnc(SCC(=O)Nc2cc(C)on2)n(C)c1=O", "EC50": "> 59.6 µM (inactive)"}
{"smiles": "Clc1ccccc1-c1nnc(Nc2nc3cc4c(cc3s2)OCO4)o1", "EC50": "53.1 µM (inactive)"}
{"smiles": "COc1ccc(-c2nnc(Nc3nc4ccc(F)cc4s3)o2)c(OC)c1", "EC50": "> 59.6 µM (inactive)"}
{"smiles": "COc1ccc(-c2nnc(Nc3nc4ccc(OC)cc4s3)o2)c(OC)c1", "EC50": "> 59.6 µM (inactive)"}
{"smiles": "COc1ccc(-c2nnc(Nc3nc4c(OC)cccc4s3)o2)cc1", "EC50": "> 59.6 µM (inactive)"}
